This passage reports inhibition results from patent US8916599B2, “1H-benz imidazole-5-carboxamides as anti-inflammatory agents” (Orexo AB, priority 2008, dated 2014).

The first test addresses T1, recombinant human mPGES-1 (Homo sapiens, UniProt O14684).
T1 construct: made in house; host or cells: Rosetta E. coli (microsomal/membrane fraction)
T1 sequence (O14684 1-152): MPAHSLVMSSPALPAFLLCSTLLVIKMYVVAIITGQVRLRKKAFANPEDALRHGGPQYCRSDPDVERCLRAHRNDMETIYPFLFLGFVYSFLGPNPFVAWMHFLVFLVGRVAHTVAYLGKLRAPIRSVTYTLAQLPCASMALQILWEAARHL
The test is described as follows: mPGES-1 inhibition test (microsomes, PGH2 substrate, HTRF detection of PGE2). The test is classed as biochemical. The note with it: inhibition of mPGES-1 at 1 μM (marked in cell). The method, boiled down: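 PGE2 formed from PGH2 in one minute by E. coli-expressed microsomal enzyme (pH 7.4, 2.5 mM GSH) was measured by competitive HTRF against a synthetic PGE2 standard curve. Compounds were preincubated 25 min at room temperature.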
In the case of `COc1cc2c(cc1C(=O)N[C@H]1CC[C@H](C(F)(F)F)CC1)nc(Nc1c(Cl)ccc(C)c1F)n2C` [Example 647, 2-(6-Chloro-2-fluoro-3-methyl-phenylamino)-6-methoxy-N-(trans-4-trifluoromethyl-cyclohex-1-yl)-1-methyl-1H-benzimidazole-5-carboxamide], the inhibition at 1 µM stood at 97%.
For `COc1cc2c(cc1C(=O)NC1CCC3(CC1)CC3)nc(Nc1c(Cl)ccc(Cl)c1F)n2C` [Example 645, 2-(3,6-Dichloro-2-fluoro-phenylamino)-6-methoxy-N-(spiro[2.5]oct-6-yl)-1-methyl-1H-benzimidazole-5-carboxamide], the inhibition at 1 µM is 100%.
Same read-out and setting: the figure for `COc1cc2[nH]c(Nc3c(Cl)ccc(C)c3F)nc2cc1C(=O)NC1CCC(C)(C)CC1` [Example 626] is 92%; for `CCOc1cc2[nH]c(Nc3c(Cl)ccc(Cl)c3F)nc2cc1C(=O)NC1CCC2(CC1)CC2` [Example 646, 2-(3,6-Dichloro-2-fluoro-phenylamino)-6-ethoxy-N-(spiro[2.5]oct-6-yl)-1H-benzimidazole-5-carboxamide] it is 99%.

The test is the same for the next values; noted with them: inhibition of mPGES-1 at 10 μM.
Take `Cn1c(Nc2c(Cl)cccc2Cl)nc2cc(C(=O)NC3CCC4(CC4)C3)c(F)cc21` (stereo not drawn) [Example 415, 2-(2,6-Dichlorophenylamino)-6-fluoro-1-methyl-N-(spiro[2.4]heptan-5-yl)-1H-benzimidazole-5-carboxamide]: the inhibition at 10 µM was 100%.
For the compound `COCCOc1cccc(NC(=O)c2ccc3[nH]c(Nc4c(Cl)cccc4Cl)nc3c2)n1` [Example 571, 2-(2,6-Dichlorophenylamino)-N-(6-(2-methoxyethoxy)pyridin-2-yl)-1H-benzimidazole-5-carboxamide], the inhibition at 10 µM turned out to be 86%.
On the same count and under the same terms, then `Cn1c(Nc2c(Cl)cccc2Cl)nc2cc(C(=O)Nc3cc(N4CCCC4)ccn3)c(F)cc21` [Example 554, 2-(2,6-Dichlorophenylamino)-6-fluoro-1-methyl-N-(4-(pyrrolidin-1-yl)-pyridin-2-yl)-1H-benzimidazole-5-carboxamide], with 84%; and `COc1cc2[nH]c(Nc3c(Cl)cccc3Cl)nc2cc1C(=O)Nc1ccc(Br)cc1` [Example 371, N-(4-Bromophenyl)-2-(2,6-dichlorophenylamino)-6-methoxy-1H-benzimidazole-5-carboxamide], with 100%; and `O=C(N[C@H]1CC[C@@H](C(F)(F)F)CC1)c1ccc2[nH]c(Nc3c(Cl)cccc3Cl)nc2c1` [Example 168, 2-(2,6-Dichloro-phenylamino)-1H-benzimidazole-5-carboxylic acid (cis-4-trifluoromethyl-cyclohexyl)-amide], with 100%.
`O=C(NCc1ncccc1C(F)(F)F)c1ccc2[nH]c(Nc3c(Cl)cccc3Cl)nc2c1` [Example 220, 2-(2,6-Dichloro-phenylamino)-1H-benzimidazole-5-carboxylic acid (3-trifluoromethyl-pyridin-2-ylmethyl)-amide]: the inhibition at 10 µM came to 96%.
As to `CCCCOc1cccc(NC(=O)c2ccc3c(c2)nc(Nc2c(Cl)cccc2Cl)n3C)n1` [Example 349, 2-(2,6-Dichloro-phenylamino)-1-methyl-1-H-benzimidazole-5-carboxylic acid (6-butoxy-pyridin-2-yl)-amide], the inhibition at 10 µM is 100%.
The same measure, in the same setting: then `Cn1c(Nc2c(Cl)cccc2Cl)nc2cc(C(=O)NC3CCCCC3)ccc21` [compound 317], with 98%; and `Cc1cc(NC(=O)c2ccc3[nH]c(Nc4c(Cl)cccc4Cl)nc3c2)ncc1Br` [Example 182, 2-(2,6-Dichloro-phenylamino)-1H-benzimidazole-5-carboxylic acid (5-bromo-4-methyl-pyridin-2-yl)-amide], with 99%.
Same read-out and setting: then `Cn1c(Nc2c(F)cccc2Cl)nc2cc(C(=O)NC3CCC4(CC3)CC4)c(F)cc21` [Example 384], with 100%; and `Cn1c(Nc2c(Cl)cccc2Cl)nc2cc(C(=O)NC3CCC(F)(F)CC3)ccc21` [Example 249, 2-(2,6-Dichloro-phenylamino)-1-methyl-1H-benzimidazole-5-carboxylic acid (4,4-difluoro-cyclohexyl)-amide], with 96%; and `Cc1cc(C(=O)Nc2ccc(Br)cc2)cc2nc(Nc3c(Cl)cccc3Cl)[nH]c12` [Example 51, 2-(2,6-Dichloro-phenylamino)-7-methyl-1H-benzimidazole-5-carboxylic acid (4-bromo-phenyl)-amide], with 89%.
Still for that read-out and setting: then `Cn1c(Nc2c(Cl)cccc2Cl)nc2cc(C(=O)NC3CC(C)(C)C3)c(F)cc21` [Example 447, 2-(2,6-Dichlorophenylamino)-N-(3,3-dimethylcyclobutyl)-6-fluoro-1-methyl-1H-benzimidazole-5-carboxamide], with 99%; and `O=C(Nc1cc(Cl)ccn1)c1cc(Br)c2[nH]c(Nc3c(Cl)cccc3Cl)nc2c1` [Example 500, 7-Bromo-N-(4-chloropyridin-2-yl)-2-(2,6-dichlorophenylamino)-1H-benzimidazole-5-carboxamide], with 100%; and `Cn1c(Nc2c(Cl)cccc2Cl)nc2cc(C(=O)NCCc3ccncc3)ccc21` [Example 260, 2-(2,6-Dichloro-phenylamino)-1-methyl-1H-benzimidazole-5-carboxylic acid (2-pyridin-4-yl-ethyl)-amide], with 84%.
On to `COc1cc2[nH]c(Nc3c(Cl)ccc(Cl)c3F)nc2cc1C(=O)NC1CCC(C)(C)CC1` [Example 616, 2-(3,6-Dichloro-2-fluoro-phenylamino)-N-(4,4-dimethyl-cyclohex-1-yl)-6-methoxy-1H-benzimidazole-5-carboxamide], for which the inhibition at 10 µM was determined as 100%.
Still for that read-out and setting: then `O=C(Nc1ncccc1Cl)c1ccc2[nH]c(Nc3c(Cl)cccc3Cl)nc2c1` [Example 186, 2-(2,6-Dichloro-phenylamino)-1H-benzimidazole-5-carboxylic acid (3-chloro-pyridin-2-yl)-amide], with 91%; and `O=C(NC1CCCCC1)c1cc(Br)c2[nH]c(Nc3c(Cl)cccc3Cl)nc2c1` [Example 514, 7-Bromo-N-cyclohexyl-2-(2,6-dichlorophenylamino)-1H-benzimidazole-5-carboxamide], with 95%; and `CCOc1cc2[nH]c(Nc3c(Cl)ccc(Cl)c3F)nc2cc1C(=O)N[C@H]1CC[C@H](C(F)(F)F)CC1` [Example 599, 2-(3,6-Dichloro-2-fluoro-phenylamino)-6-ethoxy-N-(trans-4-trifluoromethyl-cyclohex-1-yl)-1H-benzimidazole-5-carboxamide], with 92%.
Consider `Cc1cccc(Cl)c1Nc1nc2cc(C(=O)Nc3ccc(Br)cc3)ccc2n1C` [Example 382, N-(4-Bromophenyl)-2-(2-chloro-6-methylphenylamino)-1-methyl-1H-benzimidazole-5-carboxamide], for which the inhibition at 10 µM turned out to be 100%.
Same read-out and setting: the figure for `O=C(O)CCn1c(Nc2c(Cl)cccc2Cl)nc2cc(C(=O)Nc3cc(Cl)ccn3)ccc21` [Example 265, 2-(2,6-Dichloro-phenylamino)-1-(propionic acid)-1H-benzimidazole-5-carboxylic acid (4-chloro-pyridin-2-yl)-amide] is 97%; for `COCCCn1c(Nc2c(Cl)cccc2Cl)nc2cc(C(=O)Nc3cc(Cl)ccn3)ccc21` [Example 274, 2-(2,6-Dichloro-phenylamino)-1-(3-methoxy-propyl)-1H-benzimidazole-5-carboxylic acid (4-chloro-pyridin-2-yl)-amide] it is 100%; for `CCCC[C@H](C)NC(=O)c1cc2nc(Nc3c(Cl)cccc3Cl)[nH]c2cc1F` [Example 443, (S)-2-(2,6-Dichlorophenylamino)-6-fluoro-N-(hexan-2-yl)-1H-benzimidazole-5-carboxamide] it is 100%.
Still for that read-out and setting: then `COc1cc2nc(Nc3c(Cl)cccc3Cl)[nH]c2cc1C(=O)NCc1ncccc1C` [Example 507, 2-(2,6-Dichlorophenylamino)-6-methoxy-N-((3-methylpyridin-2-yl)-methyl)-1H-benzimidazole-5-carboxamide], with 98%; and `N#Cc1ccc(NC(=O)c2ccc3[nH]c(Nc4c(Cl)cccc4Cl)nc3c2)nc1` [Example 329, 2-(2,6-Dichloro-phenylamino)-1H-benzimidazole-5-carboxylic acid (5-cyano-pyridin-2-yl)-amide], with 89%.
On the same count and under the same terms, then `Cn1c(Nc2c(Cl)cccc2Cl)nc2cc(C(=O)Nc3ccc(Br)cc3)c(F)cc21` [Example 167, 2-(2,6-Dichloro-phenylamino)-6-fluoro-1-methyl-1H-benzimidazole-5-carboxylic acid (4-bromo-phenyl)-amide], with 93%; and `Cn1c(Nc2c(Cl)cccc2Cl)nc2cc(C(=O)N[C@H]3CC[C@H](C(F)F)CC3)c(F)cc21` [Example 475, 2-(2,6-Dichlorophenylamino)-N-((1r,4r)-4-(difluoromethyl)cyclohexyl)-6-fluoro-1-methyl-1H-benzimidazole-5-carboxamide], with 100%.
Take `Cn1c(Nc2c(Cl)cccc2Cl)nc2cc(C(=O)Nc3cccc(Cl)c3)cc(Br)c21` [Example 405, 7-Bromo-N-(3-chlorophenyl)-2-(2,6-dichlorophenylamino)-1-methyl-1H-benzimidazole-5-carboxamide]: the inhibition at 10 µM is 100%.
On the same count and under the same terms, the figure for `O=C(Nc1nc2c(s1)CCC2)c1ccc2[nH]c(Nc3c(Cl)cccc3Cl)nc2c1` [Example 78, 2-(2,6-Dichloro-phenylamino)-1H-benzimidazole-5-carboxylic acid (5,6-dihydro-4H-cyclopentathiazol-2-yl)-amide] is 90%.
